Assay results from patent US7550438B2, “Methods for production of growth-promoting proteins and peptides for kidney epithelial cells” (The University of Chicago, priority 1997, dated 2009).
Values joined by “and” are separate entries in the source; they are usually repeats but may differ in a detail not shown here. Equal entries are not always repeated. Where two headings read alike, the source gives them in different places.

How the values were obtained:
[1] = test system: monkey kidney epithelial cells of the BSC-1 line; assay: Growth-promoting (mitogenic) activity: number of cells in BSC-1 cultures counted four days after addition; type: cell-based, African green monkey; settings: for EC50: read-out: Growth-Stimulation K½; for stimulation of growth (increase in cell number compared to control at four days): agent alone at maximal mitogenic concentration (14-Ser 0.5 μg/ml; EGF, IGF-I 50 ng/ml; acidic FGF 100 pg/ml; basic FGF 1,000 pg/ml; vasopressin 75 pg/ml; K 10.4 mM; Na 180 mM)
[2] = test system: kidneys of rats given mercuric chloride; assay: BrdU labeling of DNA synthesis in kidneys of rats given mercuric chloride; type: in vivo, rat; settings: 14-Ser 100 μg 24 hours before mercuric chloride; 1 hour BrdU labeling 24 hours after
Description: To determine if the beneficial effects of 14-Ser peptide on survival and renal function were the result of the mitogenic action of the peptide, DNA synthesis was measured in the kidneys of rats given mercuric chloride. 5-Bromo-2′-deoxyuridine (BrdU), a nonradioactive analog of thymidine that is incorporated into DNA was used to label nuclei. A monoclonal antibody to BrdU and diamidobenzidene staining were used to detect nuclei undergoing DNA synthesis in histological sections of renal tissue. BrdU was dissolved in 20% ethanol and was injected intra-peritoneally 23 hours after administration of mercuric chloride. One hour later the kidneys were quickly perfused with a warm solution of phosphate-buffered saline via an aortic catheter to eliminate red blood cells from the organ and maintain potency of the renal tubules. The capsule was removed from the kidneys which were the bisected longitudinally, and fixed in formalin for 4 hours, and then in 70% ethanol. Tissue sections were prepared and BrdU-labeled nuclei were detected as described above.
In the kidneys of a rats given mercuric chloride, extensive necrosis of tubular cells of the terminal portion (S3) of the proximal nephron was observed, as expected in this well-characterized model system. The extent of necrosis was somewhat variable from rat-to-rat but was always confined to the aglomerular cortex. […]

In the case of AQPYPQGNHEASYG, the EC50 ([1]; + heparin (1 μg/ml)) is reported as 40 nM, the EC50 ([1]; + keratan sulfate (2 μg/ml for 5 minutes prior to peptide, b158; 10 μg/ml)) is reported as 67 nM and the “stimulation of growth (increase in cell number compared to control at four days)” value [1] is reported as 25%. For the same sequence, the “stimulation of growth (increase in cell number compared to control at four days)” value ([1]; listed as 14-Ser Peptide) was 25-30%, the “stimulation of growth (increase in cell number compared to control at four days)” value ([1]; listed as 14-Ser peptide) was 25-30% and 25% and the EC50 ([1]; peptide alone, BSC-1 cells, 4 days in culture) was 126 nM. For the same sequence, the “BrdU-labeled nuclei adjacent to the zone of tubular cell necrosis” value [2] was “many more labeled nuclei”.
